This is an account of results in patent publication US10568921B1, “Extract of Vicia faba beans” (priority 2018, dated 2020).

Several values for one entry are separate records, joined by “and”; a condition that tells them apart may be missing. Identical values can stand only once.

In the assay the test system is strychnine-induced convulsions. Description: Strychnine-induced convulsions in mice, i.p. pretreatment with test substance. The format is in vivo, BALB/c mice.
Setting [1] is: 50 mg/kg i.p. + strychnine 0.45 mg/kg i.p., individual mice No. 1-10.

As to `CCC1(c2ccccc2)C(=O)NC(=O)NC1=O` [Phenobarbitone, phenobarbitone], under setting [1], the “Survival recovered time after strychnine injection” value was 80 minutes (3×) and 90 minutes and 70 minutes (3×) and 75 minutes (3×); the “Time to first convulsion” value is 5 minutes and 7 minutes (3×) and 6.5 minutes and 8 minutes (2×) and 9 minutes (2×) and 10 minutes. Besides, the “Survival recovered time after strychnine injection, mean” value (50 mg/kg i.p. + strychnine 0.45 mg/kg i.p., mean of 10 mice) amounted to 76.5 ± 5.58 min. For the same compound, the “Protection against strychnine-induced convulsions (in words)” value (50 mg/kg i.p. before strychnine (A-1 twenty minutes, phenobarbitone 15 minutes), mice) is given as “protected against the strychnine-induced convulsions, completely”.
